Data as given in patent US7579018B2, “Microbiological control in aqueous systems” (Albemarle Corporation, priority 2000, dated 2009).

Legend:
[1] = test system: heterotrophic bacteria; assay: Cooling tower field trial, Example 2: heterotrophic bacteria plate counts; conditions: slug dose 3 times/week, 0.5 ppm free Cl2; cooling tower water
Description: (§1) The effectiveness of DBDMH and of BCDMH in microbiological control in cooling tower water was investigated in comparative tests. The cooling tower consisted of two 500-ton units in a crossflow design. The total system-contained volume was 14,000 gallons, and the tower contained medium efficiency film fill. Water from the tower cooled the coils of two 300-ton air conditioners (chillers). The tower typically operated at a pH of about 9.1 and 4 cycles of concentration. Blowdown was controlled by conductivity. Make-up water consisted of softened city water and which was of good quality. The make-up water was very low in calcium (<10 mg/L) but high in pH (8.7). The alkalinity was 145 mg/L (as CaCO3), and the silica level was 28 mg/L. The tower employed a conventional polyphosphate/molybdate/phosphonate program to provide corrosion and deposit control.
The BCDMH (20 lbs) was introduced to the water using 20-gram, 1-inch tablets charged to a solid halogen feeder (Neptune model BT-40, Neptune Chemical Pump Co., Inc., Lansdale, Pa.). Before each dose, the cooling tower water was sampled and enumerated for heterotrophic bacteria plate counts. Then the tower was slug dosed three times a week with BCDMH. Slug dosing was accomplished by diverting through the feeder containing the tablets a sidestream of the recirculating water for about 1 to 5 hours until a “free chlorine” dose of about 0.5 mg/L (as “free chlorine”) was obtained. The “total chlorine” dose was measured at the same time. After each dose the cooling water was sampled and enumerated for heterotrophic bacteria plate counts. As necessary, the feeder was replenished with more BCDMH tablets.
For example, before the biocide dose the bacteria levels in the bulk water ranged from 10^5 to 10^4 CFUs/mL. After the biocide dose the bacteria levels in the bulk water were reduced to 10^4 to 10^3.
After emptying the feeder of BCDMH tablets, 20 lbs of DBDMH granules was charged into the feeder. Thereupon the same procedure as described above for the BCDMH was carried out except for the fact that is was unnecessary to add any additional DBDMH to the feeder during the 30-day test period. In fact, the total weight of DBDMH consumed during the test was only 7 lbs.

[2] = test system: aerobic bacteria; assay: Cooling tower field trial of 51 days, Example 3: bacteria levels
Description: as §1, with “Using the same cooling tower as used in Example 2, the effectiveness” for “The effectiveness”, “of 1,3-dibromo-5,5-dimethylhydantoin” for “of DBDMH and of BCDMH”, “was investigated. As noted above, the” for “was investigated in comparative tests. The”
The 1,3-dibromo-5,5-dimethylhydantoin was introduced to the water using granules charged to a solid halogen feeder (Neptune model BT-40, Neptune Chemical Pump Co., Inc., Lansdale, Pa.). The field trial lasted 51 days. The tower was slug dosed three times a week with 1,3-dibromo-5,5-dimethylhydantoin. Slug dosing was accomplished by diverting a sidestream of the recirculating water through the feeder containing the granules for about 1 to 5 hours until a total halogen residual of about 0.75 mg/L (as Cl2) was obtained. This biocide program reduced bacterial levels in the bulk water by an average of 2 orders of magnitude, with bacteria levels in the bulk water after the biocide dose ranging from 10^1 to 10^3 CFUs/mL.
The results from the average of several analyses conducted during the course of this field trial using DBDMH were as follows: In the microbiological tests, the levels of aerobic bacteria were in the range of 6×10^0 to 3×10^3 CFUs/mL in the cooling tower water and 10^0 in the make-up water. […]

CC1(C)C(=O)N(Br)C(=O)N1Br [DBDMH, 1,3-dibromo-5,5-dimethylhydantoin]
Bacteria reduction [1]: 1.5-2 logs | levels of aerobic bacteria ([2]; in the cooling tower water, several analyses during field trial): 6×10^0 to 3×10^3 CFUs/mL | bacteria levels in the bulk water after the biocide dose ([2]; slug dosed three times a week to total halogen residual about 0.75 mg/L (as Cl2)): 10^1 to 10^3 CFUs/mL | average reduction of bacterial levels in the bulk water ([2]; slug dosed three times a week to total halogen residual about 0.75 mg/L (as Cl2), 51 days): 2 orders of magnitude
